Source: patent USRE46558E1, “Compositions and methods to treat diseases characterized by cellular proliferation and angiogenesis” (Paloma Pharmaceuticals, Inc., priority 2005, dated 2017)
Where two headings read alike, the source gives them in different places.

Columns and labels:
HUVEC quiescent = assay: Non-proliferating (quiescent) HUVEC assay; type: cell-based; set-up: dose or concentration left out as unconfirmed; conditions: Homo sapiens, 48 h, read-out: HUVECq % inhibition
Source text: (§1) Anti-tumor (anti-proliferative for cancer cells), anti-angiogenic activity (anti-proliferative for endothelial cells) measured in vitro as inhibition of proliferation binding to estrogen receptor alpha and beta HUVEC Proliferation. Inhibition of the proliferation of human umbilical vein endothelial cells, HUVECs, is shown as one measure of anti-angiogenic activity. HUVECS and the required media complements were purchased from Cascade Biologics (Portland, Oreg.) and the growth and maintenance of the cultures was as described by the manufacturer. The proliferation assay was carried out by seeding the HUVECs in 96-well plates at a density of 1,000 cells/well in complete medium. Following a 24 h plating period, the cells were starved for 24 h in 0.5% serum before being treated with SG (“Signal Gene” now “Palomid”) angiogenic inhibitors in the presence of 10 ng/ml b-FGF or dosing ranging presence of either b-FGF or VEGF in complete medium. After 48 h, cell number was determined using a calorimetric method as described by the supplier (Promega Corp., Madison, Wis.). The results were expressed as the percentage of the maximal b-FGF or VEGF response in the absence of angiogenic inhibitors. Non-proliferating endothelial cells were assayed by growing HUVECs to quiescence in 96-well plates and treating with angiogenic inhibitors for 48 h. Initially, 5,000 cells/well were seeded and confluence was achieved the next day. The plates were incubated another 24 h to ensure growth arrest before treatment with angiogenic inhibitors. Cell number was determined as outlined above.

[1] = system: colon carcinoma cell line, HCT-116; assay: Cancer cell line proliferation, colon; type: cell-based; set-up: dose or concentration left out as unconfirmed; conditions: Homo sapiens
Source text: (§2) Cancer Cell Lines. Measurement of the inhibition of tumor cell growth is one measure of anti-cancer activity. Two human cancer cell lines were used to assess the effects of SG angiogenic inhibitors on the proliferation of these cells. The cell lines were MCF-7 breast cancer cells and the colon carcinoma cell line, HCT-116. All cell lines were obtained from Americans Type Tissue Culture (Manassas, Va.) and maintained in their respective media as described by the supplier. The proliferation studies were carried out essentially as described for the proliferating endothelial cells.

[2] = system: human umbilical vein endothelial cells, HUVECs (proliferating); assay: HUVEC proliferation assay (proliferating, b-FGF or VEGF stimulated); type: cell-based; set-up: inhibition: dose or concentration left out as unconfirmed; conditions: for inhibition: Homo sapiens, proliferating HUVEC, 48 h, read-out: HUVECp % inhibition
Source text: as §1

[3] = system: MCF-7 breast cancer cells; assay: Cancer cell line proliferation, breast; type: cell-based; set-up: dose or concentration left out as unconfirmed; conditions: Homo sapiens, MCF7
Source text: as §2

[4] = target: T1, human estrogen receptor beta (Homo sapiens, UniProt Q92731); assay: ER binding assay, [3H]estradiol competition, ERb; conditions: 0.5 nM [3H]estradiol, 4° C. overnight; na = no activity
T1 construct: made in house; host or cells: rabbit reticulocyte lysate, coupled in vitro transcription-translation (Promega TNT kit)
T1 sequence (Q92731 whole entry): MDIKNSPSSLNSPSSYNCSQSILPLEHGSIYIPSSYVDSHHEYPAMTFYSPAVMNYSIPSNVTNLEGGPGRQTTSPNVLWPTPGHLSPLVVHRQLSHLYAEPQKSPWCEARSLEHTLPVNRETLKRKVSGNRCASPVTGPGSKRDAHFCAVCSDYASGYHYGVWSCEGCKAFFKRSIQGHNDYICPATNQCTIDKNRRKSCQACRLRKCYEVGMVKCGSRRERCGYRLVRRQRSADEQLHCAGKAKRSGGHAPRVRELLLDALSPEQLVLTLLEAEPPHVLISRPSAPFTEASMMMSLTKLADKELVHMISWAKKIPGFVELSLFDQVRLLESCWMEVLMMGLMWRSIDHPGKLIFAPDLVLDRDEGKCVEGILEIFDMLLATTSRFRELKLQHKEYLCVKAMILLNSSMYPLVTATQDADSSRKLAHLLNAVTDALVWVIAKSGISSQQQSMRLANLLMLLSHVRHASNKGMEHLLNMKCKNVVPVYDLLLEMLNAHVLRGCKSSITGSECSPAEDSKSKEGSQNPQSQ
Source text: ER Binding Assay. Derivatives which bind and transduce a signal through estrogen receptors would not be considered a positive activity as such an activity could enhance cancer growth as well as induce angiogenesis. Derivatives which either have little or no binding to estrogen receptors (“ER”) would be one desired activity. […] Human cDNAs encoding ERa and ERb were used as templates to express receptor proteins in vitro. The proteins were produced with rabbit reticulocyte lysates as supplied by Promega (TNT kit) that couples transcription and translation in a single reaction. The amount of template used in each reaction was determined empirically and expression was monitored in parallel reactions where [35S]methionine was incorporated into the receptor followed by gel electrophoresis and exposure to film. Binding reactions were carried out in […] final volumes in TEG buffer (10 mM tris, pH 7.5, 1.5 mM EDTA, 10% glycerol). […] The reactions were incubated at 4° C. overnight and bound E2 was quantified by adding […] dextran-coated charcoal. […] The maximum binding was determined by competing bound E2 with only the ethanol vehicle. […] Values for percent inhibition were calculated based on the maximal E2 binding. The data were plotted and Ki values calculated using the Prism Software. […]

[5] = % of maximal b-FGF or VEGF response

Row | hERb % binding [4] | Compound | inhibition (HUVEC quiescent) | inhibition [1] | inhibition [2, 5] | inhibition [3] | inhibition of bFGF-stimulated endothelial cell proliferation ([2]; FIG. 1A, bFGF-stimulated) | inhibition of VEGF-stimulated endothelial cell proliferation ([2]; FIG. 1B, VEGF-stimulated) | inhibition [2]
1 |  | COc1cc2c(cc1OCc1ccccc1)oc(=O)c1cc(C(C)O)ccc12 (stereo not shown) [Palomid 393] | 21% | 26% | 71% | 11% |  |  | 
2 |  | COc1ccc(COc2cc3oc(=O)c4cc(C(C)O)ccc4c3cc2OC)cc1 (stereo not shown) [Palomid 529] | 31% | 20% | 113% | 32% | inhibition | inhibition | 65%
3 |  | COc1ccccc1COc1cc2oc(=O)c3cc(C(C)O)ccc3c2cc1OC (stereo not shown) [Palomid 545] | 22% | 21% | 100% | 17% |  |  | 32%
4 |  | COc1cc(COc2cc3oc(=O)c4cc(C(C)=O)ccc4c3cc2OC)cc(OC)c1 [Palomid 546] | 23% |  | 100% | 13% |  |  | 18%
5 |  | COc1cc(COc2cc3oc(=O)c4cc(C(C)O)ccc4c3cc2OC)cc(OC)c1 (stereo not shown) [Palomid 547] | 25% | 17% | 106% | 35% |  |  | 42%
6 |  | CCc1ccc2c(c1)c(=O)oc1cc(OCc3ccc(OC)cc3)c(OC)cc12 [Palomid 550] | 14% | < 10% | 77% | 28% |  |  | 
7 |  | CCc1ccc2c(c1)c(=O)oc1cc(OCc3ccccc3OC)c(OC)cc12 [Palomid 551] |  |  | 62% | 25% |  |  | 
8 |  | COc1cc2c(cc1OCc1ccc(C)cc1)oc(=O)c1cc(C(C)=O)ccc12 [Palomid 559] | 35% |  | 96% | 17% |  |  | 72%
9 |  | CCc1ccc2c(c1)c(=O)oc1cc(OCc3ccc(Br)cc3)c(OC)cc12 [Palomid 560] |  |  | 53% |  |  |  | 
10 | 37% | COc1cc2c(cc1OCCc1ccccc1)oc(=O)c1cc(C(C)=O)ccc12 [Palomid 568] | 14% |  | 78% | < 10% |  |  | 
11 |  | CCc1ccc2c(c1)c(=O)oc1cc(OCc3ccc(C(=O)OC)cc3)c(OC)cc12 [Palomid 573] | < 10% | < 10% | 145% |  |  |  | 
12 |  | CCc1ccc2c(c1)c(=O)oc1cc(OCc3ccc(C(=O)c4ccccc4)cc3)c(OC)cc12 [Palomid 574] | 29% | 24% | 74% |  |  |  | 13%
13 |  | COc1cc2c(cc1OCc1ccc(C)cc1)oc(=O)c1cc(C(C)O)ccc12 (stereo not shown) [Palomid 575] | 33% | 10% | 104% | 31% |  |  | 41%
